{"source": "patent US20220313620A1", "about": "“COMPOSITION FOR PREVENTING AND TREATING TAUOPATHIES” (SERVICIO ANDALUZ DE SALUD, priority 2019, published 2022)", "key": {"[1]": {"test_system": "Ghrelin", "assay": "Plasma ghrelin (ELISA) after acute oral gavage in fasted rats", "format": "in vivo", "details": "oral 500 mg/kg, adult male Wistar rats, FIG. 3A / FIG. 4", "procedure": "The protocol was approved by the Ethics Committee for Animal Experiments of the University of Malaga.\nD-Pinitol (3-0-methyl-D-chiro-inositol) was generously provided by EURONUTRA SL (https://www.euronutra.com/, Malaga, Spain), in the form of crystalline fine powder (lot: PPN-M0201). For acute treatments, D-Pinitol was dissolved in water to be administered by gavage (orally) at different concentrations (100 mg/Kg and 500 mg/Kg), drug was administered at a volume of 1 ml/kg.\nAfter 18 hours of fasting, D-Pinitol dissolved in water was administered acutely by gavage (100 mg/kg in a first study, and 500 mg/kg in a subsequent study). After administration, the animals were sacrificed in groups at different times (being time 0 the administration of D-Pinitol). For the first study (100 mg/kg), groups of animals were sacrificed at times: 10, 20, 30, 60, 120, 240 and 360 minutes after administration; for the second study (500 mg/kg), animals were sacrificed at times: 60, 120 and 240 minutes after administration. As a control group, a group was administered only with water (by gavage).\nAnimals were anesthetized with sodium pentobarbital (50 mg/Kg, i.p.), blood, brain and liver samples were collected. Blood was centrifuged (2100 g for 8 min, 4° C.) and the plasma kept for further analysis. Liver and brain samples were flash-frozen in liquid N2, then stored at −80° C. until further analysis.\nThe plasma levels of insulin and ghrelin were determined with an enzyme-linked immunosorbent assay (ELISA) method using commercial kits: EMD Millipore Corporation (Billerica, Mass., USA) Cat. #EZRMI-13K and Cat. #EZRGRT-91K, respectively. Glucagon levels in plasma was determined with a Glucagon Enzyme Immunoassay (EIA) Kit: Cat. #RAB0202 Sigma-Aldrich (Saint Louis, Mo., USA). All serum samples were assayed in duplicate within one assay, and results were expressed in terms of the particular standard hormone."}, "[2]": {"test_system": "tau protein", "assay": "Hippocampal tau phosphorylation and total tau (western blot) after 10 days of oral drinking", "format": "in vivo, Wistar rats", "details": "oral by drinking 100 mg/Kg for 10 days, hippocampus", "procedure": "(§1) Animal experimental procedures were carried out in accordance with the European Communities directive 2010/63/EU and Spanish legislation (Real Decreto 53/2013). The protocol was approved by the Research and approved by Ethics Committee for Animal Experiments of the University of Malaga, Spain. In accordance with the ARRIVE guidelines, all efforts were made to minimize animal suffering and to reduce the number of animals used per experimental group. Chronic drinking experiments on Wistar rats were performed on 20 male rats. All adult rats, ageing 2 months (≈300 g of body weight), were provided by Charles River Laboratories (Barcelona, Spain). The animals were housed individually under a standard 12 h light-dark cycle in a room with temperature and humidity control. Water and rat chow pellets were provided ad libitum throughout the course of the present study.\n(§2) Caromax®-D-Pinitol (3-O-methyl-d-chiro-inositol, DPIN, 98% purity) and Caromax®-D-Chiro-inositol (cis-1,2,3-trans-3,5,6-cyclohexanehexol, DCI) were provided by Euronutra SL (Málaga, Spain). They were dissolved in water to orally daily administration by drinking and/or gavage at dose of 100 mg/Kg of body weight (BW) in a 1 ml/kg of BW volume to Zucker and Wistar rats for 4 weeks (28 days) and 10 days, respectively (FIG. 1). During the drinking treatments, the concentration of inositols in the water were updated considering the daily increase of BW of the rats and the possible loss of water by evaporation.\n(§3) Brain extract. Frozen brain samples (17 mg per sample) were homogenized in 1 mL of cold RIPA lysis buffer (50 mM Tris-HCl pH 7.4, 150 mM NaCl, 0.5% NaDOC, 1 mM EDTA, 1% Triton, 0.1% SDS, 1 mM Na3VO4, 1 mM NaF) supplemented with a protease cocktail (Hoffmann-Roche). The suspension was incubated for 2 hours at 4° C., followed by centrifugation at 12,000 rpm for 15 minutes at 4° C. The supernatant was transferred to a new clean centrifuge tube, and Bradford colorimetric method was used to determine the concentration of the total protein. The protein extracts were diluted 1:1 in loading buffer (DTT 2X) and heated for 5 minutes at 99° C. before being subjected to electrophoresis.\nWestern Blot Analysis. The tissue protein (10-15 μg) was subjected to electrophoresis on 4-12% Criterion XT Precast Bis-Tris gels (Bio-Rad, USA) for 30 minutes at 80V and 2 h at 150V. […] Bands were quantified by densitometric analysis using ImageJ software (Rasband, WS, ImageJ, US National Institutes of Health, Bethesda, Md., USA). […] The results were expressed as the protein/α-Adaptin ratio or phosphorylated/total protein ratio and normalized to the control group (Y axis represents ‘fold mean of the control values’).\nAll data are expressed as mean±SEM. […]"}, "[3]": {"test_system": "glycogen synthase kinase-3β (GSK-3β)", "assay": "Hippocampal GSK-3β phosphorylation and total level (western blot) after 10 days of oral administration", "format": "in vivo, Wistar rats", "details": "oral 100 mg/Kg for 10 days, hippocampus", "procedure": "as §1, §2, §3\nWestern Blot Analysis. The tissue protein (10-15 μg) was subjected to electrophoresis on 4-12% Criterion XT Precast Bis-Tris gels (Bio-Rad, USA) for 30 minutes at 80V and 2 h at 150V. Proteins were transferred onto a 0.2 μm nitrocellulose membrane (Bio-Rad, USA) for 1 h at 80V by wet transfer equipment. The membrane was washed twice for 5 min in TBST (10 mM Tris-HCl, 150 mM NaCl, 0.1% Tween 20, pH 7.6) and blocked with 2% Bovine Serum Albumin-Tris Buffered Saline Tween 20 (BSA-TBST) for one hour at room temperature on a shaker platform. Subsequently, the membrane was incubated with respective primary antibodies overnight at 4° C. diluted in 2% BSA-TBST (Table 2 for additional information). The following day, the membrane was washed three times for 5 min with TBST. An appropriate HRP conjugated rabbit/mouse secondary antibody (Promega) was diluted 1:10000 in 2% BSA-TST and incubated with the membrane for 1 h shaking at room temperature. Finally, the membrane was washed as above and exposed to chemiluminescent reagent (Santa Cruz, Biotechnology Inc.) for 5 min. Stripping/reproving steps were used when necessary. Respective membrane bound protein was then visualized by Chemiluminescence (ChemiDoc Imaging System, Bio-Rad). Bands were quantified by densitometric analysis using ImageJ software (Rasband, WS, ImageJ, US National Institutes of Health, Bethesda, Md., USA). Normalization was performed using a reference protein of the same membrane, the α-Adaptin. The results were expressed as the protein/α-Adaptin ratio or phosphorylated/total protein ratio and normalized to the control group (Y axis represents ‘fold mean of the control values’).\nAll data are expressed as mean±SEM. Statistical analysis was undertaken for studies where each group size was of, at least, n=5. […]"}}, "data": [{"smiles": "OC1C(O)C(O)C(O)C(O)C1O", "note": "[DCI, (1R,2R,3S,4S,5S,6S)-cyclohexane-1,2,3,4,5,6-hexol]", "values": [{"measurement": "circulating plasma Ghrelin concentration", "setting": "[1]", "value": "enhances"}, {"measurement": "quantity of phospho-tau (AT8: Ser202, Thr205) compared with vehicle group", "setting": "[2]; FIG. 7A.1", "value": "dropped to more than half"}, {"measurement": "relative protein levels of total tau compared with vehicle group", "setting": "[2]; FIG. 7A.2", "value": "rise"}, {"measurement": "GSK-3β serine-9 phosphorylation", "setting": "[3]; FIG. 9A.1", "value": "no effect"}, {"measurement": "GSK-3β tyrosine-216 phosphorylation", "setting": "[3]; FIG. 9A.2", "value": "no effect"}, {"measurement": "GSK-3β kinase activity (Ser9/Tyr216)", "setting": "[3]; FIG. 9A.3", "value": "neither enhance nor inhibition"}]}]}
